# Values of other authors, collected in paper PMC5863612 (Chemical Science, 2017).
# System: βPGM
# Details: for Km: previously recorded result
Km [µM],Molecule,Inhibition of βPGM (reported range)
14.7,"O=P(O)(O)O[C@@H]1O[C@H](CO)[C@@H](O)[C@H](O)[C@H]1O [βG1P, β-D-glucose 1-phosphate]",
0.72 ± 0.04,"O=P(O)(O)OC[C@H]1O[C@@H](OP(=O)(O)O)[C@H](O)[C@@H](O)[C@@H]1O [βG16BP, β-glucose-1,6-bisphosphate]",
,fluorine,low millimolar range
